The record followed here is patent US8063065B2, “Azaindazole compounds as CCR1 receptor antagonists” (Boehringer Ingelheim International GmbH, priority 2008, dated 2011).

Usually IC50 stands for the concentration needed to halve the response being measured.

This assay concerns the target T1, CCR1 (Homo sapiens, UniProt P32246).
T1 sequence (P32246 1-355): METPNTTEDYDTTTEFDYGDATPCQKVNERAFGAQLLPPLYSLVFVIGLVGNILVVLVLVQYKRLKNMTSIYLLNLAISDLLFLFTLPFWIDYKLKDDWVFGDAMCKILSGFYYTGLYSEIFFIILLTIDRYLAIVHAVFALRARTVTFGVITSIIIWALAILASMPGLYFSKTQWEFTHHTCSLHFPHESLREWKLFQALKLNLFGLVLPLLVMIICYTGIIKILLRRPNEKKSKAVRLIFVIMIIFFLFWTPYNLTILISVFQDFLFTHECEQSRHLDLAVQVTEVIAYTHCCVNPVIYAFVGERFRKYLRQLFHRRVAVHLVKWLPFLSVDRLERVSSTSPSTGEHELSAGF
Kind of assay: Method B: calcium flux in CCR1 transfected cells (Calcium 4 dye, […] FDSS6000), block of the CCR1/MIP-1α interaction. The format is cell-based. The note with it: Method B: Calcium 4 dye, MIP-1alpha at EC80. Here is the method: Compounds are assessed for the ability to block the interaction of CCR1 and MIP-1α in a functional cellular assay measuring calcium flux in CCR1 transfected cells.
Method B: Non-adherent cells purchased from Chemicon Corporation (HTS005C), stably expressing recombinant CCR1 and G-alpha-16 are grown in RPMI 1640 medium (Mediatech 10-080-CM) supplemented with 10% FBS, 0.4 mg/mL Geneticin and penicillin/streptomycin. On the day of the assay, the cells are loaded with Calcium 4 dye (Molecular Devices R7448) with Probenecid (Invitrogen P346400) at 8E5 cells/mL for 1 hour at room temperature. After 1 hour, they are seeded in a 384-well tissue culture-treated plate at a density of 20,000 cells/well. Appropriately diluted test compound is added to the well to achieve a top concentration of 3,000 nM (diluted 4-fold with 10 doses total). The final concentration of DMSO is 1%. The buffer is HBSS (Invitrogen 14025) with 20 mM HEPES at pH 7.4. The cells incubate 30 minutes at 37 C and then 30 minutes at room temperature. The plates are transferred to the […] FDSS6000 where MIP-1alpha in 1% BSA is added at the EC80 final concentration. All plates must be read within 4 hours of the start of dye-loading. Wells+/−MIP-1alpha containing diluted DMSO instead of compound serve as the controls. Data are analyzed using Activity Base software.
On the technique in general: Calcium flux is commonly read through the fluorescence of an indicator in the cells.

On to `CC[C@H](NC(=O)c1cncc2c1cnn2-c1ccc(F)cc1)c1cc(NC(C)C)nc(S(C)(=O)=O)c1` [1-(4-Fluorophenyl)-1H-pyrazolo[3,4-c]pyridine-4-carboxylic acid [(S)-1-(2-isopropylamino-6-methanesulfonyl-pyridin-4-yl)-propyl]-amide], for which the IC50 came to 0.2 nM.
To `CC[C@H](NC(=O)c1cncc2c1cnn2-c1ccc(F)cc1)c1ccnc(S(N)(=O)=O)c1` [1-(4-Fluorophenyl)-1H-pyrazolo[3,4-c]pyridine-4-carboxylic acid [(S)-1-(2-sulfamoyl-pyridin-4-yl)-propyl]-amide] belongs 0.4 nM; to `CCS(=O)(=O)c1cncc([C@H](C)NC(=O)c2cncc3c2cnn3-c2ccc(F)cc2)c1` [1-(4-Fluorophenyl)-1H-pyrazolo[3,4-c]pyridine-4-carboxylic acid [(S)-1-(5-ethanesulfonyl-pyridin-3-yl)-ethyl]-amide], 4 nM; to `CC(C)(O)CNc1cc(CNC(=O)c2cncc3c2cnn3-c2ccc(F)cc2)cc(S(C)(=O)=O)n1` [1-(4-Fluorophenyl)-1H-pyrazolo[3,4-c]pyridine-4-carboxylic acid [2-(2-hydroxy-2-methyl-propylamino)-6-methanesulfonyl-pyridin-4-ylmethyl]-amide], 0.7 nM.
In the case of `COC[C@H](NC(=O)c1cncc2c1cnn2-c1ccc(F)cc1)c1ccnc(S(C)(=O)=O)c1` [1-(4-Fluorophenyl)-1H-pyrazolo[3,4-c]pyridine-4-carboxylic acid [(R)-1-(2-methanesulfonyl-pyridin-4-yl)-2-methoxy-ethyl]-amide] it was 1 nM.
To `CC[C@H](NC(=O)c1cncc2c1cnn2-c1ccc(F)cc1)c1ccc(S(C)(=O)=O)c(O)c1` [1-(4-Fluorophenyl)-1H-pyrazolo[3,4-c]pyridine-4-carboxylic acid [(S)-1-(3-hydroxy-4-methanesulfonyl-phenyl)-propyl]-amide] belongs 0.6 nM.
Regarding `CC[C@H](NC(=O)c1cncc2c1cnn2-c1ccc(F)cc1)c1cn[nH]c1` [1-(4-Fluorophenyl)-1H-pyrazolo[3,4-c]pyridine-4-carboxylic acid [(S)-1-(1H-pyrazol-4-yl)-propyl]-amide], the IC50 stood at 36 nM.
As to `CC[C@H](NC(=O)c1cncc2c1cnn2-c1ccc(F)cc1)c1ccnc(N2CCN(C)CC2)c1` [1-(4-Fluorophenyl)-1H-pyrazolo[3,4-c]pyridine-4-carboxylic acid {(S)-1-[2-(4-methyl-piperazin-1-yl)-pyridin-4-yl]-propyl}-amide], the IC50 is 8 nM.
In the case of `CCS(=O)(=O)c1cc([C@H](C)NC(=O)c2cncc3c2cnn3-c2ccc(F)cc2)ccn1` [1-(4-Fluorophenyl)-1H-pyrazolo[3,4-c]pyridine-4-carboxylic acid [(S)-1-(2-ethanesulfonyl-pyridin-4-yl)-ethyl]-amide] it was 2 nM; in that of `CC[C@H](NC(=O)c1cncc2c1cnn2-c1ccc(F)cc1)c1cnc(SC)o1` [1-(4-Fluorophenyl)-1H-pyrazolo[3,4-c]pyridine-4-carboxylic acid [(S)-1-(2-methylsulfanyl-oxazol-5-yl)-propyl]-amide], 1 nM.
To `CC[C@H](NC(=O)c1cncc2c1cnn2-c1ccc(F)cc1)c1ccnc(Cl)c1` [1-(4-Fluorophenyl)-1H-pyrazolo[3,4-c]pyridine-4-carboxylic acid [(S)-1-(2-chloropyridin-4-yl)-propyl]-amide] belongs 0.2 nM; to `CC[C@H](NC(=O)c1cncc2c1cnn2-c1ccc(F)cc1)c1csc(S(C)(=O)=O)n1` [1-(4-Fluorophenyl)-1H-pyrazolo[3,4-c]pyridine-4-carboxylic acid [(S)-1-(2-methanesulfonyl-thiazol-4-yl)-propyl]-amide], 0.4 nM; to `CC[C@H](NC(=O)c1cncc2c1cnn2-c1ccc(F)cc1)c1ccn(S(=O)(=O)c2ccc(C)cc2)c1` [1-(4-Fluorophenyl)-1H-pyrazolo[3,4-c]pyridine-4-carboxylic acid {(S)-1-[1-(toluene-4-sulfonyl)-1H-pyrrol-3-yl]-propyl}-amide], 3 nM.
